Measured values published in ChEMBL document CHEMBL2095176, “GSK Tuberculosis Screening Data”.
Converted amounts (≈) assume the structure as drawn.

How the values were obtained:
physchem [1] = conditions: octanol/water
Description: (§1) GSK_TB: GSK in-house hydrophobicity assay (logP)

[2] = tested on: Mycobacterium tuberculosis H37Rv; assay: microbe, parasite or virus in culture
Description: GSK_TB: Intracellular minimum inhibitory concentration (MIC) H37Rv assay

[3] = buffer, pH 7.4
Description: (§2) GSK_TB: GSK in-house hydrophobicity assay at pH7.4 (logD)

physchem [4] = conditions: phosphate buffered saline, pH 7.4
physchem [5] = conditions: buffer, pH 7.4
Description: as §2

[6] = octanol/water
Description: as §1

SMILES | logP (physchem [1]) | MIC90 [2] [µM] | logD7.4 [3] | solubility kinetic (physchem [4]) [µM] | logD (physchem [5]) | logP [6]
CCN(CC)c1ccc(-c2nn3c(-c4n[nH]c5c4CCC5)nnc3s2)cc1 | 5.78 | 1.5 (≈ 0.569 µg/mL) | 5.44 | 1 (≈ 0.379 µg/mL) | – | –
COc1ccc(CCNC(=O)c2c(C)nc3ccccn23)cc1 | 3.41 | 3.1 (≈ 0.959 µg/mL) | – | 348 (≈ 108 µg/mL) | 3.39 | –
Cc1cccc(Cn2ccc(NC(=O)c3ccc4c(c3)OCO4)n2)c1 | 5.27 | 3.7 (≈ 1.24 µg/mL) | – | 80 (≈ 26.8 µg/mL) | 5.07 | –
c1csc(Cc2nn3c(-c4n[nH]c5c4CCC5)nnc3s2)c1 | 3.48 | 2.4 (≈ 0.788 µg/mL) | – | 196 (≈ 64.4 µg/mL) | 3.3 | –
Brc1c(-c2ccc3c(c2)OCO3)nc2ncccn12 | 3.48 | 4.7 (≈ 1.5 µg/mL) | – | 219 (≈ 69.7 µg/mL) | 3.48 | –
O=C(c1cc2ccccc2o1)N1CCN(Cc2ccc3c(c2)OCO3)CC1 | 5.83 | 2.7 (≈ 0.984 µg/mL) | – | 171 (≈ 62.3 µg/mL) | 5.63 | –
Nc1nc(N)c2c(Sc3ccc4ccccc4c3)cccc2n1 | 4.72 | 8.71 (≈ 2.77 µg/mL) | – | 32 (≈ 10.2 µg/mL) | 4.41 | –
COc1cc(CN2CCC3(C=Cc4ccccc43)CC2)cc2c1OCO2 | 8.25 | 9.5 (≈ 3.32 µg/mL) | – | 121 (≈ 42.3 µg/mL) | 7.03 | –
c1ccc(-c2nnc(Sc3ccnc(N4CCN(c5ccncc5)CC4)n3)n2CCCN2CCOCC2)nc1 | 3.22 | 6.38 (≈ 3.48 µg/mL) | – | 154 (≈ 83.9 µg/mL) | 2.08 | –
CCOC(=O)CC[C@H](NC(=O)c1ccc(S(=O)(=O)Nc2ccc3nc(N)[nH]c(=O)c3c2)cc1)C(=O)OCC | 2.45 | 1.5 (≈ 0.818 µg/mL) | – | 300 (≈ 164 µg/mL) | 2.46 | –
Cl.Cl.O=C(Nc1ccc(NC2=NCCN2)cc1)c1ccc(C(=O)Nc2ccc(NC3=NCCN3)cc2)cc1 | 0.918 | 1.6 | – | 26 | 0.12 | –
COc1ccc(-c2nsc(SCC(=O)N3CCCC3)n2)cc1 | 5.27 | 1.6 (≈ 0.538 µg/mL) | – | 10 (≈ 3.35 µg/mL) | 4.97 | –
CC(C)(C)c1ccc(-c2nnc(SCC(=O)OC3CCCCC3)o2)cc1 | – | 1.74 (≈ 0.651 µg/mL) | 9.17 | 1 (≈ 0.375 µg/mL) | – | 9.65
CCCCc1ccc(C(=O)Nc2nccc3ccccc23)nc1 | 6.94 | 9.23 (≈ 2.82 µg/mL) | – | 98 (≈ 29.9 µg/mL) | 6.65 | –
Nc1cc(OCc2ccccc2)ccc1Nc1ccccc1 | 6.94 | 9.44 (≈ 2.74 µg/mL) | – | 1 (≈ 0.29 µg/mL) | 6.65 | –
CN(C)S(=O)(=O)c1ccc(C(=O)Nc2nnc(-c3ccc(Cl)s3)o2)cc1 | 4.69 | 5.82 (≈ 2.4 µg/mL) | – | 177 (≈ 73.1 µg/mL) | 2.83 | –
O=C(C=Cc1cccs1)N1CCN(Cc2ccc3c(c2)OCO3)CC1 | 5.23 | 0.3 (≈ 0.107 µg/mL) | – | 314 (≈ 112 µg/mL) | 4.97 | –
O=C(CCC1CCCCC1)Nc1cccc(-c2nnc(-c3ccco3)o2)c1 | 7.18 | 6.1 (≈ 2.23 µg/mL) | – | 1 (≈ 0.365 µg/mL) | 6.84 | –
Cc1nc2ccccn2c1C(=O)NCc1ccccc1 | 3.2 | 2 (≈ 0.531 µg/mL) | – | 403 (≈ 107 µg/mL) | 3.2 | –
COc1cc2ccccc2cc1C(=O)NCc1cccc(-c2ccccc2OC)c1 | 7.58 | 2.2 (≈ 0.874 µg/mL) | – | 84 (≈ 33.4 µg/mL) | 7.21 | –
CCC(Sc1nc2ccccc2o1)C(=O)Nc1nccs1 (stereo unspecified) | 5.78 | 2.79 (≈ 0.89 µg/mL) | – | 105 (≈ 33.5 µg/mL) | 5.44 | –
CC(C)OC(=O)COc1ccc(-c2cnc(N(C)CCc3ccncc3)nc2)cc1 | 5.93 | 6.76 (≈ 2.75 µg/mL) | – | 182 (≈ 74 µg/mL) | 5.63 | –

SMILES | logP (physchem [1]) | MIC90 [2] [µM] | logD7.4 [3] | solubility kinetic (physchem [4]) [µM] | logD (physchem [5]) | logP [6]
C[C@@H](NCCc1nc(-c2cn(C)c3ccccc23)no1)C1CCCCC1.Cl | 8.75 | 1.15 | – | 202 | 6.56 | –
COc1cc(Cc2cnc(N)nc2N)c2cnccc2c1N(C)C | 2.61 | 2.99 (≈ 0.968 µg/mL) | – | 304 (≈ 98.6 µg/mL) | 2.55 | –
CCCc1ccc(S(=O)(=O)Nc2ccc(CN3CCN(CC4CC4)CC3)cc2)cc1.O=C(O)C(F)(F)F.O=C(O)C(F)(F)F | 5.54 | 7.76 | – | 318 | 4.69 | –
c1ccc(Cc2nnc(Sc3ccnc(N4CCN(c5ccncc5)CC4)n3)n2CCN2CCOCC2)cc1 | 3.12 | 7.85 (≈ 4.27 µg/mL) | – | 186 (≈ 101 µg/mL) | 2.18 | –
CC1=Nc2ccccc2CN1CC(O)c1cc(Br)cs1 (stereo unspecified) | 4.12 | 7.85 (≈ 2.76 µg/mL) | – | 563 (≈ 198 µg/mL) | 2.46 | –
O=C(COc1ccccc1)N1CCN(c2cnc3ccccc3n2)CC1 | 4.72 | 3.09 (≈ 1.08 µg/mL) | – | 173 (≈ 60.3 µg/mL) | 4.69 | –
Cc1cc(OCC(=O)Nc2ccccc2)c2cc(Br)ccc2n1 | 5.44 | 3.3 (≈ 1.23 µg/mL) | – | 16 (≈ 5.94 µg/mL) | 5.25 | –
FC(F)(F)c1cc(SCc2ccccc2)nc(-c2ccccn2)n1 | 7.54 | 3.3 (≈ 1.15 µg/mL) | – | 1 (≈ 0.347 µg/mL) | 7.12 | –
COc1ccccc1OCCCCn1c(C2CC2)nc2ccccc21 | 5.83 | 3.4 (≈ 1.14 µg/mL) | – | 167 (≈ 56.2 µg/mL) | 5.63 | –
O=C(C=Cc1ccco1)N1CCN(Cc2ccc3c(c2)OCO3)CC1 | 4.72 | 4.6 (≈ 1.57 µg/mL) | – | 186 (≈ 63.3 µg/mL) | 4.51 | –
CCc1ccc(S(=O)(=O)Nc2cc(CN3CCN(CCC(C)C)CC3)ccc2C)cc1.O=C(O)C(F)(F)F.O=C(O)C(F)(F)F | 7.74 | 4.68 | – | 313 | 6.28 | –
Cc1ccc2nc(C)c(-c3ccn(Cc4ccccc4)n3)n2c1 | 5.54 | 5 (≈ 1.51 µg/mL) | – | 120 (≈ 36.3 µg/mL) | 5.16 | –
Cc1nn(Cc2ccccc2)c(Cl)c1C(=O)NC1CCCCCC1 | 7.04 | 5.2 (≈ 1.8 µg/mL) | – | 28 (≈ 9.68 µg/mL) | 6.75 | –
O=C(/C=C/c1ccccc1)N1CCN(Cc2cccc(OCc3ccccc3)c2)CC1 | 7.54 | 8.22 (≈ 3.39 µg/mL) | – | 61 (≈ 25.2 µg/mL) | 7.21 | –
O=C(Nc1ccccc1-c1nc(C2CCC2)cs1)OCC1CCNCC1.O=C(O)C(F)(F)F | 8.15 | 8.71 | – | 115 | 4.41 | –
CCc1nc2ccccc2n1CC(O)COc1cc(C)ccc1Cl (stereo unspecified) | 5.63 | 8.81 (≈ 3.04 µg/mL) | – | 1 (≈ 0.345 µg/mL) | 5.35 | –
CC(=O)NCCn1c(Sc2ccnc(N3CCN(c4ccncc4)CC3)n2)nnc1-c1ccccc1 | 1.82 | 8.91 (≈ 4.47 µg/mL) | – | 135 (≈ 67.7 µg/mL) | 1.06 | –
Cc1nc2ccccn2c1C(=O)NCc1cccs1 | 2.93 | 9.02 (≈ 2.45 µg/mL) | – | 365 (≈ 99 µg/mL) | 2.92 | –
c1ccc(-c2nc(NC3CCCCC3)cc(C3CC3)n2)nc1 | 6.74 | 7.08 (≈ 2.08 µg/mL) | – | 302 (≈ 88.9 µg/mL) | 6.09 | –
c1ccc(-c2csc(Nc3nc4cc5c(cc4s3)OCO5)n2)nc1 | 5.06 | 2.7 (≈ 0.957 µg/mL) | – | 1 (≈ 0.354 µg/mL) | 5.07 | –
COc1ccc2sc(Nc3nc(-c4ccccn4)cs3)nc2c1 | 5.34 | 8.2 (≈ 2.79 µg/mL) | – | 22 (≈ 7.49 µg/mL) | 5.35 | –
Fc1ccc2nc(Nc3nc(-c4ccccn4)cs3)sc2c1 | 5.54 | 2.3 (≈ 0.755 µg/mL) | – | 28.5 (≈ 9.36 µg/mL) | 5.53 | –
